{"source": "ChEMBL document CHEMBL5512605", "about": "“Targeted regulated cell death with small molecule compounds in colorectal cancer: Current perspectives of targeted therapy and molecular mechanisms” (Eur J Med Chem, 2024)", "key": {"SW-620 [1]": {"test_system": "SW-620", "test": "Antiproliferative activity against human SW620 cells", "type": "functional, cell-based"}, "HCT-116 [2]": {"test_system": "HCT-116", "test": "Antiproliferative activity against human HCT-116 cells assessed as inhibition of cell viability measured after 24 hrs by CCK-8 method", "type": "functional, cell-based", "settings": "HCT-116, 24 h"}, "HT-29 [3]": {"test_system": "HT-29", "test": "Antiproliferative activity against human HT-29 cells assessed as inhibition of cell viability measured after 24 hrs by CCK-8 method", "type": "functional, cell-based", "settings": "HT-29, 24 h"}, "HCT-116 [4]": {"test_system": "HCT-116", "test": "Antiproliferative activity against human HCT-116 cells incubated for 48 hrs by MTT assay", "type": "functional, cell-based", "settings": "HCT-116, 48 h"}, "HT-29 [5]": {"test_system": "HT-29", "test": "Antiproliferative activity against human HT-29 cells incubated for 48 hrs by MTT assay", "type": "functional, cell-based", "settings": "HT-29, 48 h"}, "SW480 [6]": {"test_system": "SW480", "test": "Antiproliferative activity against human SW480 cells assessed as inhibition of cell growth measured after 48 hrs by CCK-8 method", "type": "functional, cell-based", "settings": "SW480, 48 h"}, "SW-620 [7]": {"test_system": "SW-620", "test": "Antiproliferative activity against human SW620 cells assessed as inhibition of cell growth measured after 48 hrs by CCK-8 method", "type": "functional, cell-based", "settings": "SW-620, 48 h"}, "DLD-1 [8]": {"test_system": "DLD-1", "test": "Antiproliferative activity against human DLD-1 cells assessed as inhibition of cell growth measured after 48 hrs by CCK-8 method", "type": "functional, cell-based", "settings": "DLD-1, 48 h"}, "HCT-116 [9]": {"test_system": "HCT-116", "test": "Antiproliferative activity against human HCT-116 cells assessed as inhibition of cell growth measured after 48 hrs by CCK-8 method", "type": "functional, cell-based", "settings": "HCT-116, 48 h"}, "HT-29 [10]": {"test_system": "HT-29", "test": "Antiproliferative activity against human HT-29 cells assessed as inhibition of cell growth measured after 48 hrs by CCK-8 method", "type": "functional, cell-based", "settings": "HT-29, 48 h"}, "SW837": {"test_system": "SW837", "test": "Antiproliferative activity against human SW837 cells", "type": "functional"}, "DLD-1 [11]": {"test_system": "DLD-1", "test": "Antiproliferative activity against human DLD-1 cells assessed as inhibition of cell viability by CCK-8 method", "type": "functional, cell-based"}, "HCT-116 [12]": {"test_system": "HCT-116", "test": "Antiproliferative activity against human HCT-116 cells assessed as inhibition of cell viability by CCK-8 method", "type": "functional, cell-based"}, "HCT-116 [13]": {"test_system": "HCT-116", "test": "Antiproliferative activity against human HCT-116 cells", "type": "functional, cell-based"}, "SW480 [14]": {"test_system": "SW480", "test": "Antiproliferative activity against human SW480 cells", "type": "functional, cell-based"}, "SW-620 [15]": {"test_system": "SW-620", "test": "Cytotoxicity against human SW620 cells", "type": "functional, cell-based", "settings": "Homo sapiens, SW-620"}, "HCT-116 [16]": {"test_system": "HCT-116", "test": "Cytotoxicity against human HCT-116 cells", "type": "functional, cell-based", "settings": "Homo sapiens, HCT-116"}, "HT-29 [17]": {"test_system": "HT-29", "test": "Antiproliferative activity in human HT-29 cells incubated for 48 hrs by MTT assay", "type": "functional, cell-based", "settings": "HT-29, 48 h"}, "SW480 [18]": {"test_system": "SW480", "test": "Cytotoxicity against human SW480 cells assessed as inhibition of cell proliferation measured after 48 hrs by MTT assay", "type": "functional, cell-based"}, "HT-29 [19]": {"test_system": "HT-29", "test": "Induction of cell cycle arrest in human HT-29 cells measured after 24 to 48 hrs by PI staining based flow cytometry analysis", "type": "functional"}, "RKO": {"test_system": "RKO", "test": "Cytotoxicity against human RKO cells assessed as inhibition of cell proliferation measured after 48 hrs by MTT assay", "type": "functional, cell-based"}, "HCT-116 [20]": {"test_system": "HCT-116", "test": "Cytotoxicity against human HCT-116 cells assessed as inhibition of cell proliferation measured after 48 hrs by MTT assay", "type": "functional, cell-based", "settings": "HCT-116, 48 h"}, "SW-620 [21]": {"test_system": "SW-620", "test": "Antiproliferative activity against human SW620 cells assessed as inhibition of cell growth", "type": "functional, cell-based"}, "HCT-116 [22]": {"test_system": "HCT-116", "test": "Antiproliferative activity against human HCT-116 cells assessed as inhibition of cell growth", "type": "functional, cell-based"}, "SW-620 [23]": {"test_system": "SW-620", "test": "Antiproliferative activity against human SW620 cells measured upto 60 hrs by MTS assay", "type": "functional"}, "LoVo": {"test_system": "LoVo", "test": "Antiproliferative activity in human LoVo cells incubated for 72 hrs by MTT assay", "type": "functional, cell-based"}, "Caco-2": {"test_system": "Caco-2", "test": "Antiproliferative activity against human Caco-2 cells measured after 24 hrs by MTT assay", "type": "functional, cell-based", "settings": "Caco-2, 24 h"}, "HCT-116 [24]": {"test_system": "HCT-116", "test": "Antiproliferative activity against human HCT-116 cells incubated for 24 hrs by MTT assay", "type": "functional"}}, "data": [{"compound": "CC(/C=C/C(=O)NO)=C\\[C@@H](C)C(=O)c1ccc(N(C)C)cc1", "note": "[TRICHOSTATIN]", "values": [{"measurement": "IC50", "setting": "SW-620 [1]", "result": 2450, "unit": "nM"}]}, {"compound": "O=c1cc(-c2ccc(O)cc2)oc2cc(O)c([C@@H]3O[C@H](CO)[C@@H](O)[C@H](O)[C@H]3O)c(O)c12", "note": "[ISOVITEXIN]", "values": [{"measurement": "IC50", "setting": "HCT-116 [2]", "result": 29.8, "unit": "µM"}, {"measurement": "IC50", "setting": "HT-29 [3]", "result": 37.2, "unit": "µM"}]}, {"compound": "O=c1cc(-c2ccc(Oc3c(-c4ccc(O)cc4)oc4cc(O)cc(O)c4c3=O)cc2)oc2cc(O)cc(O)c12", "values": [{"measurement": "IC50", "setting": "HCT-116 [4]", "result": 32, "unit": "µM"}, {"measurement": "IC50", "setting": "HT-29 [5]", "result": 18.8, "unit": "µM"}]}, {"compound": "CCc1ccc2c3[nH]c4ccccc4c3cc[n+]2c1", "values": [{"measurement": "IC50", "setting": "SW480 [6]", "result": 15.3, "unit": "µM"}, {"measurement": "IC50", "setting": "SW-620 [7]", "result": 10.5, "unit": "µM"}, {"measurement": "IC50", "setting": "DLD-1 [8]", "result": 10.8, "unit": "µM"}, {"measurement": "IC50", "setting": "HCT-116 [9]", "result": 8.15, "unit": "µM"}, {"measurement": "IC50", "setting": "HT-29 [10]", "result": 9.58, "unit": "µM"}]}, {"compound": "Cc1ncsc1-c1ccc([C@H](C)NC(=O)[C@@H]2C[C@@H](O)CN2C(=O)[C@@H](NC(=O)CCCCCC(=O)N2CCN(CC[C@H](CSc3ccccc3)Nc3ccc(S(=O)(=O)NC(=O)c4ccc(N5CCN(CC6=C(c7ccc(Cl)cc7)CCC(C)(C)C6)CC5)cc4)cc3S(=O)(=O)C(F)(F)F)CC2)C(C)(C)C)cc1", "note": "[DT-2216]", "values": [{"measurement": "IC", "setting": "SW837", "result": 1, "unit": "µM"}]}, {"compound": "CETUXIMAB", "values": [{"measurement": "IC", "setting": "DLD-1 [11]", "result": 100, "unit": "µM"}, {"measurement": "IC", "setting": "HCT-116 [12]", "result": 100, "unit": "µM"}]}, {"compound": "COc1ccc(-c2cc(=O)c3c(O)c(OC)c(O)c(OC)c3o2)cc1", "note": "[NEVADENSIN]", "values": [{"measurement": "IC50", "setting": "HCT-116 [13]; Homo sapiens, HCT-116", "result": 5, "unit": "µM"}, {"measurement": "IC50", "setting": "SW480 [14]; Homo sapiens, SW480", "result": 5, "unit": "µM"}]}, {"compound": "C=CC(=O)Nc1ccccc1Nc1nc(Nc2ccc(CN3CCC(C(=O)NO)CC3)cc2)ncc1Cl", "values": [{"measurement": "IC50", "setting": "SW-620 [15]", "result": 309, "unit": "nM"}, {"measurement": "IC50", "setting": "HCT-116 [16]", "result": 134, "unit": "nM"}]}, {"compound": "C=CCCCOc1cc(O)c2c(c1)OC(c1ccc(O)cc1)CC2=O", "note": "(stereo unspecified)", "values": [{"measurement": "IC50", "setting": "HT-29 [17]", "result": 23.4, "unit": "µM"}]}, {"compound": "CC(C)c1cccc(C(C)C)c1O", "note": "[PROPOFOL]", "values": [{"measurement": "IC", "setting": "SW480 [18]; time 48 hrs", "result": 12.5, "unit": "µM"}]}, {"compound": "N#CC1=C(N)Oc2ccc3ccccc3c2C1c1ccc(F)cc1", "note": "(stereo unspecified)", "values": [{"measurement": "IC50", "setting": "HT-29 [19]", "result": 60, "unit": "µM"}]}, {"compound": "C[C@@H]1CC[C@@]2(OC1)O[C@H]1C[C@H]3[C@@H]4CC=C5C[C@H](O[C@@H]6O[C@H](CO)[C@@H](O)[C@H](O[C@@H]7O[C@H](CO)[C@@H](O)[C@H](O)[C@H]7O)[C@H]6O[C@@H]6O[C@@H](C)[C@H](O)[C@@H](O)[C@H]6O)CC[C@]5(C)[C@H]4CC[C@]3(C)[C@H]1[C@@H]2C", "values": [{"measurement": "IC50", "setting": "SW480 [18]; Homo sapiens, SW480, 48 h", "result": 2670, "unit": "nM"}, {"measurement": "IC50", "setting": "RKO", "result": 3.12, "unit": "µM"}, {"measurement": "IC50", "setting": "HCT-116 [20]", "result": 5.47, "unit": "µM"}]}, {"compound": "CC1=C(O)C(=O)C=C2C1=CC=C1[C@@]2(C)CC[C@@]2(C)[C@@H]3C[C@](C)(C(=O)O)CC[C@]3(C)CC[C@]12C", "note": "[CELASTROL]", "values": [{"measurement": "IC50", "setting": "SW-620 [21]", "result": 290, "unit": "nM"}, {"measurement": "IC50", "setting": "HCT-116 [22]", "result": 290, "unit": "nM"}]}, {"compound": "O=C1C2C3C=CC(C4CC34)C2C(=O)N1c1ccc(Cc2ccncc2)cc1", "note": "(stereo unspecified)", "values": [{"measurement": "IC", "setting": "HCT-116 [13]", "result": 10, "unit": "µM"}, {"measurement": "IC", "setting": "SW480 [14]", "result": 10, "unit": "µM"}]}, {"compound": "COc1cc2c(=O)oc3c(OC)c(O)cc4c(=O)oc(c1OC)c2c34", "values": [{"measurement": "IC", "setting": "SW-620 [23]", "result": 15, "unit": "µM"}]}, {"compound": "O=C1/C(=C/c2ccccc2Br)CSC/C1=C\\c1ccccc1Br", "values": [{"measurement": "IC50", "setting": "LoVo", "result": 1000, "unit": "nM"}]}, {"compound": "CC[C@@H](C(=O)[C@@H](C)[C@@H](O)[C@H](C)[C@@H]1O[C@@H]([C@@H](CC)C(=O)O)CC[C@@H]1C)[C@H]1O[C@]2(C=C[C@@H](O)[C@]3(CC[C@@](C)([C@H]4CC[C@](O)(CC)[C@H](C)O4)O3)O2)[C@H](C)C[C@@H]1C", "note": "[SALINOMYCIN]", "values": [{"measurement": "IC50", "setting": "Caco-2", "result": 15.7, "unit": "µM"}]}, {"compound": "COc1ccccc1[C@@H](NS(=O)(=O)c1ccc2[nH]c(=O)ccc2c1)C(=O)N(Cc1ccco1)Cc1cccs1", "values": [{"measurement": "IC", "setting": "HCT-116 [24]", "result": 20, "unit": "µM"}]}]}
